Laboratory results reported in patent publication US20240016153A1, “WHEAT SEED PRODUCTION” (PIONEER HI-BRED INTERNATIONAL, INC., priority 2022, published 2024).

Tests used:
[1] = tested on: Hard Red Winter (HRW) wheat varieties or wheat inbred lines; assay: field and greenhouse experiments: effect of GA3 on plant height, heading, flowering and yield in GA sensitive and insensitive wheat genotypes; type: in vivo
Method: A series of field and greenhouse experiments were conducted to understand the effect of GA3 on plant height, pollen dispersal and seed set in GA sensitive and insensitive wheat genotypes. Eight proprietary Hard Red Winter (HRW) wheat varieties or wheat inbred lines were used in this project at two locations. The plants were genotyped for the Rht1, Rht2, and Rht24 mutant alleles to determine which plants were GA3 sensitive or insensitive genotypes.
Commercially available GA3 was applied using a broadcast application to the wheat plants at various vegetative growth stages described by the Feekes Scale. GA3 was applied at different rates of active ingredient (ai)/acre to elucidate the growth response. Experimental treatments were: Untreated, 1 oz ai/acre applied at Feekes stage 6, 1 oz ai/acre applied sequentially at Feekes stage 6 and Feekes stage 8 (2 oz ai/acre total), and 1 oz ai/acre applied sequentially at Feekes stage 6, Feekes stage 8, and Feekes stage 10 (3 oz ai/acre total)

[2] = tested on: winter wheat genotypes; assay: production studies: sodium chlorate desiccant sprayed to delay male flowering; type: in vivo
Method: A series of production studies were conducted to understand how to delay male flowering in wheat seed production. Several winter wheat genotypes were planted in a split plot design and sprayed with a commercially available sodium chlorate desiccant at the highest labeled rate at Feekes stages 7 and 9. In most crops, desiccants are typically used to artificially accelerate the drying down of plant tissues. Here, the strategy was to slow growth rates in the male wheat plants to delay heading and subsequent flowering. […] The desiccant caused a slight 0 to 2 inch (0 to 5 cm) reduction in plant height.

Row | Compound | change in heading and flowering ([1]; GA insensitive genotypes) | effect on wheat plant height ([1]; GA sensitive genotypes vs same genotype not treated) | wheat yield vs untreated plants ([1]; GA sensitive genotypes, same GA3 treatment) | decrease of yield ([1]; GA sensitive male genotypes) [%] | differences in plant height with GA3 treatments ([1]; plants with Rht1+Rht24 or Rht2+Rht24 mutant alleles (GA3 insensitive genotype combinations)) | inbred male yield ([2]; sprayed at Feekes stage 7 or 9 (both stages), FIG. 4) | inbred male yield, comparison of stages ([2]; sprayed at Feekes stage 9, FIG. 4)
1 | C=C1C[C@]23C[C@@]1(O)CC[C@H]2[C@@]12C=C[C@H](O)[C@@](C)(C(=O)O1)[C@H]2[C@@H]3C(=O)O [GA3, gibberellin A3] | did not change | positive effect | lower wheat yield | 11 | did not show differences in plant height |  | 
2 | [Na+].[O-][Cl+2]([O-])[O-] [sodium chlorate] |  |  |  |  |  | reduced | greatest reduction
